The numbers were not newly measured in patent US8911774B2, “Topical composition for anti-aging skin treatment using dual DNA repair mechanism and method of use” (Cellhealth Technologies Ltd., priority 2009, dated 2014), which cites them from elsewhere.

One series concerns skin damage. As to conditions: shown clinically.
For another series, the system named is melanin synthesis. As to conditions: at a concentration of 0.1%.

`CC1(C)C=Cc2c(ccc3c2OC[C@@H](c2ccc(O)cc2O)C3)O1` [Glabridin]: in the series on tyrosinase, the “tyrosinase-inhibition activity relative to Kojic acid” value is recorded as 25 times and the “tyrosinase-inhibition activity relative to ascorbic acid” value is recorded as 75 times.

As for Tocotrienol, the “strength and effectiveness at repairing skin damage relative to regular Vitamin E” value with skin damage is given as 40-50 times.

On to `CCCCCCCCC(CCCCCC)C(=O)OC[C@H](OC(=O)C(CCCCCC)CCCCCCCC)[C@H]1OC(=O)C(OC(=O)C(CCCCCC)CCCCCCCC)=C1OC(=O)C(CCCCCC)CCCCCCCC` (stereo partly drawn) [tetrahexyldecyl ascorbate], for which, in the series with melanin synthesis, the “reduction of melanin synthesis” value is 80%. In the series on 8-OHdG, the “8-OHdG induced by UV-A radiation” value is “decreases”. Also, the “p53 expression induced by UV-B radiation” value in the series with p53 is “decreases”.
